Measurements reported in patent US12077503B2, “Substituted cyclic amides and their use as herbicides” (FMC CORPORATION, priority 2015, dated 2024).

Assays:
Format in all cases: in vivo
[1] = test system: ivy-leaved morning glory (Ipomoea hederacea); assay: Test G Post-Emergence Protocol; conditions: Ipomoea, post-emergence, 312 h, read-out: Morningglory, Ivy-leaved damage rating; for pest or weed control at 15.625 g/ha: 15.625 g ai/ha, evaluated after 13 days (100=total damage to plant; 0=no damage to plant); for pest or weed control at 62.5 g/ha: 62.5 g ai/ha; for pest or weed control at 62.5 g/ha / pest or weed control at 250 g/ha: evaluated after 13 days, 100=total damage to plant, 0=no damage to plant; for pest or weed control at 250 g/ha: 250 g ai/ha
Method in brief: (§1)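 Values are percent visual injury at 13 days after treatment (0 none, 100 total). Treatment was a post-emergence spray at 15.625, 62.5 or 250 g/ha on 8-day-old pot plants kept at 24/16 °C.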

[2] = test system: redroot pigweed (Amaranthus retroflexus); assay: Test G Post-Emergence Protocol; conditions: Amaranthus retroflexus, post-emergence, 312 h, read-out: Pigweed, Redroot damage rating; for pest or weed control at 15.625 g/ha: 15.625 g ai/ha, evaluated after 13 days (100=total damage to plant; 0=no damage to plant); for pest or weed control at 62.5 g/ha: 62.5 g ai/ha; for pest or weed control at 62.5 g/ha / pest or weed control at 250 g/ha: evaluated after 13 days, 100=total damage to plant, 0=no damage to plant; for pest or weed control at 250 g/ha: 250 g ai/ha
Method in brief: as §1

[3] = test system: giant foxtail (Setaria faberi); assay: Test G Post-Emergence Protocol; conditions: Setaria faberi, post-emergence, 312 h, read-out: Foxtail, Giant damage rating; for pest or weed control at 15.625 g/ha: 15.625 g ai/ha, evaluated after 13 days (100=total damage to plant; 0=no damage to plant); for pest or weed control at 62.5 g/ha: 62.5 g ai/ha; for pest or weed control at 62.5 g/ha / pest or weed control at 250 g/ha: evaluated after 13 days, 100=total damage to plant, 0=no damage to plant; for pest or weed control at 250 g/ha: 250 g ai/ha
Method in brief: as §1

[4] = test system: velvetleaf (Abutilon theophrasti); assay: Test G Post-Emergence Protocol; conditions: Abutilon theophrasti, post-emergence, 312 h, read-out: Velvetleaf damage rating; for pest or weed control at 15.625 g/ha: 15.625 g ai/ha, evaluated after 13 days (100=total damage to plant; 0=no damage to plant); for pest or weed control at 62.5 g/ha: 62.5 g ai/ha; for pest or weed control at 62.5 g/ha / pest or weed control at 250 g/ha: evaluated after 13 days, 100=total damage to plant, 0=no damage to plant; for pest or weed control at 250 g/ha: 250 g ai/ha
Method in brief: as §1

corn (Zea mays) [5] = assay: Test G Post-Emergence Protocol; conditions: Zea mays, post-emergence, 312 h, read-out: Corn damage rating; for plant injury at 15.625 g/ha: 15.625 g ai/ha, evaluated after 13 days (100=total damage to plant; 0=no damage to plant); for plant injury at 62.5 g/ha: 62.5 g ai/ha; for plant injury at 62.5 g/ha / plant injury at 250 g/ha: evaluated after 13 days, 100=total damage to plant, 0=no damage to plant; for plant injury at 250 g/ha: 250 g ai/ha
Method in brief: as §1

[6] = test system: barnyardgrass (Echinochloa crus-galli); assay: Test G Post-Emergence Protocol; conditions: Echinochloa crus-galli, post-emergence, 312 h, read-out: Barnyardgrass damage rating; for pest or weed control at 15.625 g/ha: 15.625 g ai/ha, evaluated after 13 days (100=total damage to plant; 0=no damage to plant); for pest or weed control at 62.5 g/ha: 62.5 g ai/ha; for pest or weed control at 62.5 g/ha / pest or weed control at 250 g/ha: evaluated after 13 days, 100=total damage to plant, 0=no damage to plant; for pest or weed control at 250 g/ha: 250 g ai/ha
Method in brief: as §1

[7] = test system: ivy-leaved morning glory (Ipomoea hederacea); assay: Test G Pre-Emergence Protocol; conditions: Ipomoea, pre-emergence, 312 h, evaluated after 13 days; for pest or weed control at 15.625 g/ha: 15.625 g ai/ha; for pest or weed control at 15.625 g/ha / pest or weed control at 250 g/ha: read-out: Morningglory, Ivy-leaved damage rating (100=total damage to plant; 0=no damage to plant); for pest or weed control at 62.5 g/ha: 62.5 g ai/ha, 100=total damage to plant, 0=no damage to plant, read-out: Morningglory, Ivy-leaved damage rating; for pest or weed control at 250 g/ha: 250 g ai/ha
Method in brief: (§2)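 Pre-emergence spray, 15.625/62.5/250 g/ha, vehicle acetone:water 50:50 + 0.5% Tween 20, applied 1 d after sowing. Glasshouse 24/16° C, 14 h light, 65% RH, watered twice daily. Visual damage rating at 13 d, 0–100 scale.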

[8] = test system: redroot pigweed (Amaranthus retroflexus); assay: Test G Pre-Emergence Protocol; conditions: Amaranthus retroflexus, pre-emergence, 312 h, evaluated after 13 days; for pest or weed control at 15.625 g/ha: 15.625 g ai/ha; for pest or weed control at 15.625 g/ha / pest or weed control at 250 g/ha: read-out: Pigweed, Redroot damage rating (100=total damage to plant; 0=no damage to plant); for pest or weed control at 62.5 g/ha: 62.5 g ai/ha, 100=total damage to plant, 0=no damage to plant, read-out: Pigweed, Redroot damage rating; for pest or weed control at 250 g/ha: 250 g ai/ha
Method in brief: as §2

[9] = test system: giant foxtail (Setaria faberi); assay: Test G Pre-Emergence Protocol; conditions: Setaria faberi, pre-emergence, 312 h, evaluated after 13 days; for pest or weed control at 15.625 g/ha: 15.625 g ai/ha; for pest or weed control at 15.625 g/ha / pest or weed control at 250 g/ha: read-out: Foxtail, Giant damage rating (100=total damage to plant; 0=no damage to plant); for pest or weed control at 62.5 g/ha: 62.5 g ai/ha, 100=total damage to plant, 0=no damage to plant, read-out: Foxtail, Giant damage rating; for pest or weed control at 250 g/ha: 250 g ai/ha
Method in brief: as §2

[10] = test system: velvetleaf (Abutilon theophrasti); assay: Test G Pre-Emergence Protocol; conditions: Abutilon theophrasti, pre-emergence, 312 h, evaluated after 13 days; for pest or weed control at 15.625 g/ha: 15.625 g ai/ha; for pest or weed control at 15.625 g/ha / pest or weed control at 250 g/ha: read-out: Velvetleaf damage rating (100=total damage to plant; 0=no damage to plant); for pest or weed control at 62.5 g/ha: 62.5 g ai/ha, 100=total damage to plant, 0=no damage to plant, read-out: Velvetleaf damage rating; for pest or weed control at 250 g/ha: 250 g ai/ha
Method in brief: as §2

corn (Zea mays) [11] = assay: Test G Pre-Emergence Protocol; conditions: Zea mays, pre-emergence, 312 h, evaluated after 13 days; for plant injury at 15.625 g/ha: 15.625 g ai/ha; for plant injury at 15.625 g/ha / plant injury at 250 g/ha: read-out: Corn damage rating (100=total damage to plant; 0=no damage to plant); for plant injury at 62.5 g/ha: 62.5 g ai/ha, 100=total damage to plant, 0=no damage to plant, read-out: Corn damage rating; for plant injury at 250 g/ha: 250 g ai/ha
Method in brief: as §2

[12] = test system: barnyardgrass (Echinochloa crus-galli); assay: Test G Pre-Emergence Protocol; conditions: Echinochloa crus-galli, pre-emergence, 312 h, evaluated after 13 days; for pest or weed control at 15.625 g/ha: 15.625 g ai/ha; for pest or weed control at 15.625 g/ha / pest or weed control at 250 g/ha: read-out: Barnyardgrass damage rating (100=total damage to plant; 0=no damage to plant); for pest or weed control at 62.5 g/ha: 62.5 g ai/ha, 100=total damage to plant, 0=no damage to plant, read-out: Barnyardgrass damage rating; for pest or weed control at 250 g/ha: 250 g ai/ha
Method in brief: as §2

Row | Structure (SMILES) | pest or weed control at 15.625 g/ha [1] | pest or weed control at 62.5 g/ha [1] | pest or weed control at 250 g/ha [1] | pest or weed control at 15.625 g/ha [2] | pest or weed control at 62.5 g/ha [2] | pest or weed control at 250 g/ha [2] | pest or weed control at 15.625 g/ha [3] | pest or weed control at 62.5 g/ha [3] | pest or weed control at 250 g/ha [3] | pest or weed control at 15.625 g/ha [4] | pest or weed control at 62.5 g/ha [4] | pest or weed control at 250 g/ha [4] | plant injury at 15.625 g/ha (corn (Zea mays) [5]) | plant injury at 62.5 g/ha (corn (Zea mays) [5]) | plant injury at 250 g/ha (corn (Zea mays) [5]) | pest or weed control at 15.625 g/ha [6] | pest or weed control at 62.5 g/ha [6] | pest or weed control at 250 g/ha [6] | pest or weed control at 15.625 g/ha [7] | pest or weed control at 62.5 g/ha [7] | further results
1 | CN1C[C@@H](c2cccc(Oc3ccc(F)cc3)c2)[C@H](C(=O)Nc2cccc(F)n2)C1=O (racemic) [Compound 1829] | 20% | 20% | 30% | 0% | 20% | 60% | 70% | 80% | 80% | 0% | 0% | 20% | 20% | 0% | 60% | 0% | 60% | 70% | 0% | 0% | pest or weed control at 250 g/ha [7]: 0%; pest or weed control at 15.625 g/ha [8]: 0%; pest or weed control at 62.5 g/ha [8]: 0%; pest or weed control at 250 g/ha [8]: 30%; pest or weed control at 15.625 g/ha [9]: 70%; pest or weed control at 62.5 g/ha [9]: 80%; pest or weed control at 250 g/ha [9]: 90%; pest or weed control at 15.625 g/ha [10]: 0%; pest or weed control at 62.5 g/ha [10]: 0%; pest or weed control at 250 g/ha [10]: 20%; plant injury at 15.625 g/ha (corn (Zea mays) [11]): 0%; plant injury at 62.5 g/ha (corn (Zea mays) [11]): 10%; plant injury at 250 g/ha (corn (Zea mays) [11]): 60%; pest or weed control at 15.625 g/ha [12]: 60%; pest or weed control at 62.5 g/ha [12]: 70%; pest or weed control at 250 g/ha [12]: 90%
2 | CCOc1cc(C)cc(C2CN(C)C(=O)C2C(=O)Nc2cccc(F)c2F)c1 (stereo not drawn) [Compound 1692] | 40% | 30% | 70% | 0% | 40% | 40% | 60% | 80% | 80% | 0% | 20% | 30% | 20% | 50% | 80% | 40% | 70% | 80% | 0% | 0% | pest or weed control at 250 g/ha [7]: 30%; pest or weed control at 15.625 g/ha [8]: 0%; pest or weed control at 62.5 g/ha [8]: 10%; pest or weed control at 250 g/ha [8]: 10%; pest or weed control at 15.625 g/ha [9]: 60%; pest or weed control at 62.5 g/ha [9]: 80%; pest or weed control at 250 g/ha [9]: 90%; pest or weed control at 15.625 g/ha [10]: 0%; pest or weed control at 62.5 g/ha [10]: 0%; pest or weed control at 250 g/ha [10]: 20%; plant injury at 15.625 g/ha (corn (Zea mays) [11]): 0%; plant injury at 62.5 g/ha (corn (Zea mays) [11]): 60%; plant injury at 250 g/ha (corn (Zea mays) [11]): 80%; pest or weed control at 15.625 g/ha [12]: 20%; pest or weed control at 62.5 g/ha [12]: 70%; pest or weed control at 250 g/ha [12]: 80%
